Data: US7449492B2, “Therapeutic agents—I” (priority 2000, dated 2008)

Tests used:
[1] = test system: peripheral blood mononuclear cells (PBMCs); experiment: Phagocytosis with fluorescent beads; assay type: cell-based; conditions: whole heparinized blood, 30 min at 37° C.
Procedure: Phagocytosis by peripheral blood mononuclear cells (PBMCs) was assayed (Steinkamp et al., 1982) using 1 μm Fluoresbrite™ yellow-green fluorescent latex spheres (Polysciences, Inc., Warrington, Pa.). A sample of whole, heparinized blood was treated with drug and 5×10E7 fluorescent latex beads in 10 μL of PBS added per mL of suspension. Cells were incubated and maintained in suspension for 30 min by means of a shaker platform at 37° C. The stimulated and non-stimulated samples were then lysed to isolate PBMCs. The PBMCs were run on the flow cytometer measuring FITC (excitation at 488 nm, emission at 525±20 nm), gated for fluorescence (phagocytosed spheres) and light scatter (cell size).

[2] = test system: MM96L human melanoma cells; experiment: Leukocyte killing with drug present, [3H]-thymidine labelling; assay type: cell-based; conditions: 60 ng/mL with leukocytes, 48 hr; 100:1 ratio of effector:target cells
Procedure: (§1) Leukocytes obtained by lysis of human peripheral blood were added to 5000 MM96L human melanoma cells or 7000 neonatal foreskin fibroblasts per microtitre well at effector: target ratios of 1000, 100 and 10:1. Ing9 (60 ng/mL) was added and after 48 hr incubation the cultures were washed and labelled with [3H]-thymidine for 2 hr. […] Untreated leukocytes had no effect on cell survival.

[3] = test system: neonatal foreskin fibroblasts; experiment: Killing by untreated leukocytes of drug-pretreated target cells; assay type: cell-based, human; conditions: target cells treated with 60 ng/mL for 20 hr and washed before leukocytes; 100:1 ratio of effector:target cells
Procedure: as §1, with “The target cells had been treated with 60 ng/mL PEP008 for 20 hr beforehand,” for “Ing9 (60 ng/mL) was added”, “washed and the medium replaced before the leukocytes were added. After” for “after”, “incubation with the leukocytes” for “incubation”

[4] = test system: neonatal foreskin fibroblasts; experiment: Leukocyte killing with drug present, [3H]-thymidine labelling; assay type: cell-based, human; conditions: 60 ng/mL with leukocytes, 48 hr; 100:1 ratio of effector:target cells
Procedure: as §1

[5] = test system: MM96L human melanoma cells; experiment: Killing by untreated leukocytes of drug-pretreated target cells; assay type: cell-based; conditions: target cells treated with 60 ng/mL for 20 hr and washed before leukocytes; 100:1 ratio of effector:target cells
Procedure: as §1, with “The target cells had been treated with 60 ng/mL PEP008 for 20 hr beforehand,” for “Ing9 (60 ng/mL) was added”, “washed and the medium replaced before the leukocytes were added. After” for “after”, “incubation with the leukocytes” for “incubation”

## C/C=C(/C)C(=O)O[C@H]1C(C)=C[C@]23C(=O)[C@@H](C=C(COC(C)=O)[C@@H](O)[C@]12O)[C@H]1[C@@H](C[C@H]3C)C1(C)C [PEP008, 20-O-acetyl-ingenol-3-angelate]
[1]
  phagocytosis of fluorescent latex spheres in PBMCs: stimulate phagocytosis
[2]
  survival of melanoma cells: 9%
[3]
  survival of normal fibroblasts: 100%
[4]
  survival of normal fibroblasts: 100%
[5]
  survival of melanoma cells: 12%
